# Measured values reported in ChEMBL document CHEMBL6074688, “Discovery of a Novel Mutant-Selective Epidermal Growth Factor Receptor Inhibitor Using an In Silico Enabled Drug Discovery Platform” (J Med Chem, 2024).
# Key:
# CYP3A4/5 [1] = target: T1, CYP3A4/5 (Homo sapiens, UniProt P08684+P20815); experiment: Time dependent inhibition of CYP3A4/5 (unknown origin) at 30 uM measured after 30 mins relative to control; format: protein assay; conditions: read-out: TDI
# CYP3A4/5 [2] = target: T1, CYP3A4/5; experiment: Time dependent inhibition of CYP3A4/5 (unknown origin) assessed as remaining activity at 30 uM relative to control; format: protein assay; conditions: read-out: Activity
# CYP3A4/5 [3] = target: T1, CYP3A4/5; experiment: Time dependent inhibition of CYP3A4/5 (unknown origin) in presence of NADPH; format: ADME, protein assay
# CYP3A4/5 [4] = target: T1, CYP3A4/5; experiment: Time dependent inhibition of CYP3A4/5 (unknown origin) in absence of NADPH; format: ADME, protein assay
# [5] = target: Epidermal growth factor receptor (Homo sapiens, UniProt P00533, C797S/L858R/T790M); experiment: Binding affinity to EGFR L858R/T790M/C797S mutant (unknown origin) assessed as inhibition constant incubated for 30 mins in presence of ATP by Real-time fluorescence based analysis
# Sequence of Epidermal growth factor receptor (Homo sapiens, UniProt P00533, C797S/L858R/T790M) (P00533 25-1210 T790M/C797S/L858R limits assumed): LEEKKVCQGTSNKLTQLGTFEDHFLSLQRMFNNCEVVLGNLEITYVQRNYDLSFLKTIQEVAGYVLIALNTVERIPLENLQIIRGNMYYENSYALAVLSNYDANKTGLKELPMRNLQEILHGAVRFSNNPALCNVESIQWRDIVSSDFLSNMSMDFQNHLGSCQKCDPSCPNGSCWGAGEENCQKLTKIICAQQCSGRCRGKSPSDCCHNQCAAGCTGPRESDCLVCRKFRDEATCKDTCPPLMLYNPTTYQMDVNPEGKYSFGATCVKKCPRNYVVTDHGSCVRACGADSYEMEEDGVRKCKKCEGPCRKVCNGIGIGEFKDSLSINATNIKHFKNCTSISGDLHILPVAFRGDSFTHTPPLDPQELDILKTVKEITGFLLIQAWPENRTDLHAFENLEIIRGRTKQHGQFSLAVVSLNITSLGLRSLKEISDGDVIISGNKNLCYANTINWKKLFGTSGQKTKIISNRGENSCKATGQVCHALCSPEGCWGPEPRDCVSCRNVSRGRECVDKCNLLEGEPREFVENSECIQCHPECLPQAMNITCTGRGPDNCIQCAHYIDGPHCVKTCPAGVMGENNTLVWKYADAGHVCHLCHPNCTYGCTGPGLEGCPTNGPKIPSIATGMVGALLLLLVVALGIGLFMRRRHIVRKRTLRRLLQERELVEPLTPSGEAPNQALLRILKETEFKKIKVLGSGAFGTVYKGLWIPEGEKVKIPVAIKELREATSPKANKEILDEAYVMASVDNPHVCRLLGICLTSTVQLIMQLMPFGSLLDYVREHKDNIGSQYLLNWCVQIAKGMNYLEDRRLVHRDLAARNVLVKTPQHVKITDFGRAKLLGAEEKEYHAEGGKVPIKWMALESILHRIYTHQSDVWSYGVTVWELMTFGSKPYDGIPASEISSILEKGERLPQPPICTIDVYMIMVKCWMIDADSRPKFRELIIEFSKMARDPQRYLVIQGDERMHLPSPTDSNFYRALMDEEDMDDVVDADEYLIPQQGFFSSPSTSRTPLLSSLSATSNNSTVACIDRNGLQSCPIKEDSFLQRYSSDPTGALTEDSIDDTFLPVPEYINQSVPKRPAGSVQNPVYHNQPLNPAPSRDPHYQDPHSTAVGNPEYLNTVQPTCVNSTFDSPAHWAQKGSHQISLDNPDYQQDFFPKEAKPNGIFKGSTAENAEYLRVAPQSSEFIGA
# [6] = target: Epidermal growth factor receptor (Homo sapiens, UniProt P00533); experiment: Binding affinity to wild type EGFR (unknown origin) assessed as inhibition constant incubated for 30 mins in presence of ATP by Real-time fluorescence based analysis
# Sequence of Epidermal growth factor receptor (Homo sapiens, UniProt P00533) (P00533 whole entry): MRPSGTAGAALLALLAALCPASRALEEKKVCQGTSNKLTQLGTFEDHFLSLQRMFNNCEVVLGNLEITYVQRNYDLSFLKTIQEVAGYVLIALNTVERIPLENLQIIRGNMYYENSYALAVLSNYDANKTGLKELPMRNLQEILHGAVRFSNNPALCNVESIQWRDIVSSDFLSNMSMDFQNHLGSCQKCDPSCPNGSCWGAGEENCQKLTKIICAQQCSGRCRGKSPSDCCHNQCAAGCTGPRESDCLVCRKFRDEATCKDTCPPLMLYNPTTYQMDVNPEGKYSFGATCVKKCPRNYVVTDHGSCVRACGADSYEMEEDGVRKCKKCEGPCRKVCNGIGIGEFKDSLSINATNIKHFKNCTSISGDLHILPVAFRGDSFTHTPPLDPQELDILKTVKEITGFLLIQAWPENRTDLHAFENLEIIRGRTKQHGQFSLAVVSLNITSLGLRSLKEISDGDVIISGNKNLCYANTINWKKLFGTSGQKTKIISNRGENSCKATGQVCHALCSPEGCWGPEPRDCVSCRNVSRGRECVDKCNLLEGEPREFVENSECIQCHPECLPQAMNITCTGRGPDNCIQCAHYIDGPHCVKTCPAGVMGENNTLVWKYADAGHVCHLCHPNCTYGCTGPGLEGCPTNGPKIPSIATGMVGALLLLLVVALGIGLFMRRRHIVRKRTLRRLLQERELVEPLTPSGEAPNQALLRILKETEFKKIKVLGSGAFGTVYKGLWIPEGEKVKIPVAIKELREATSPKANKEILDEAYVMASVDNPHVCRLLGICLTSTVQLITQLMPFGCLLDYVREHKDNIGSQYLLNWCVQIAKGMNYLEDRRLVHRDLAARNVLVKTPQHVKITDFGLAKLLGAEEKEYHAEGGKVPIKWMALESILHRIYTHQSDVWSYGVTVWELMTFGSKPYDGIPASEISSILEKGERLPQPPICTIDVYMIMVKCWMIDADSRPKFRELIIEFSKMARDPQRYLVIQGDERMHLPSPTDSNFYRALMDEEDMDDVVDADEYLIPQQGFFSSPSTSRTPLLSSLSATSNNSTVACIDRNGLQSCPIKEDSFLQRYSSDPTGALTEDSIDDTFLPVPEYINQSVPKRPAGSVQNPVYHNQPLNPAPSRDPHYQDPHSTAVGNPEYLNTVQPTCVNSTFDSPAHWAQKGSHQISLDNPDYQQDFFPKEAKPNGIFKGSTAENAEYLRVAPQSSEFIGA
# physchem = conditions: octanol/water
# CYP3A4/5 [7] = target: T1, CYP3A4/5; experiment: Reversible inhibition of CYP3A4/5 (unknown origin) at 30 uM relative to control; format: ADME, protein assay
# CYP3A4/5 [8] = target: T1, CYP3A4/5; experiment: Time dependent inhibition of CYP3A4/5 (unknown origin) at 30 uM measured after 10 mins relative to control; format: ADME, protein assay; conditions: read-out: TDI
"inhibition at 0.5 h, 30 µM (CYP3A4/5 [1])",activity at 30 µM (CYP3A4/5 [2]),Ki [5],logD at 3 h (physchem),further results,SMILES
34%,86%,–,–,IC50 (CYP3A4/5 [3]): > 1.4 µM; IC50 (CYP3A4/5 [4]): 22 µM,CN1CCC2(CCC(n3c(C(F)(F)F)cn4nc(Nc5ccnc(N6CC[C@@H](O)[C@@H](F)C6)n5)cc34)CC2)C1=O (stereo partly drawn)
–,–,0.027 µM,2.27,Ki [6]: Not_active,COC1CCN(c2nccc(Nc3cc4n(C5CCC(=O)CC5)c(C)cn4n3)n2)CC1
64%,98%,–,–,–,CCNC(=O)c1cn2nc(Nc3ccnc(N4CC[C@@H](OC)[C@@H](F)C4)n3)cc2n1C1CCC2(CC1)OCCO2
52.4%,57%,–,–,"IC50 (CYP3A4/5 [3]): 156 µM; IC50 (CYP3A4/5 [4]): 0.82 µM; inhibition at 30 µM (CYP3A4/5 [7]): 66%; inhibition at 10 min, 30 µM (CYP3A4/5 [8]): 41.2%",CO[C@@H]1CCN(c2nccc(Nc3cc4n(C5CCC6(CC5)OCCO6)c(C)cn4n3)n2)C[C@@H]1F
8.3%,25%,–,–,IC50 (CYP3A4/5 [3]): 2.3 µM; IC50 (CYP3A4/5 [4]): 5.7 µM,O[C@@H]1CCN(c2nccc(Nc3cc4n(C5CCC6(CC5)OCCO6)c(C(F)(F)F)cn4n3)n2)C[C@@H]1F
55.8%,65%,–,–,–,CCc1cn2nc(Nc3ccnc(N4CC[C@@H](OC)[C@@H](F)C4)n3)cc2n1[C@H]1CC[C@]2(CCN(C)C2=O)CC1
–,–,0.0099 µM,3.32,Ki ([6]; read-out: Ki): 1.7 µM,Cc1cn2nc(Nc3ccnc(N4CC[C@@H](O)[C@@H](F)C4)n3)cc2n1C1C2CCCC1C2 (stereo partly drawn)
50%,78%,–,–,–,CO[C@@H]1CCN(c2nccc(Nc3cc4n(C5CCC6(CC5)OCCO6)c(C#N)cn4n3)n2)C[C@@H]1F
24%,> 99%,–,–,–,CO[C@@H]1CCN(c2nccc(Nc3cc4n(C5CCC6(CC5)OCCO6)c(C(=O)NCC5CCN(C)CC5)cn4n3)n2)C[C@@H]1F
–,–,6.1 µM,2.56,Ki [6]: Not_active,COC1CCN(c2nccc(Nc3cc4n(C)c(C)cn4n3)n2)CC1
26%,> 99%,–,–,–,CO[C@@H]1CCN(c2nccc(Nc3cc4n(C5CCC6(CC5)OCCO6)c(C(=O)NCC5CN(C)C5)cn4n3)n2)C[C@@H]1F
–,–,0.95 µM,3.37,Ki [6]: Not_active,COC1CCN(c2nccc(Nc3cc4n(C5CC5)c(C)cn4n3)n2)CC1
34.9%,39%,–,–,–,CCc1cn2nc(Nc3ccnc(N4CC[C@@H](OC)[C@@H](F)C4)n3)cc2n1C1CCC2(CC1)OCCO2
